1 compound from US7648993B2, “Methods of treating disorders with Group I mGluR antagonists” (Brown University, priority 2001, dated 2010) can be followed below.

For assay [1], the system named is high-density cultured hippocampal neurons. In words: Biotinylation and quantitative western blot of surface expressed receptors. Type of assay: cell-based, rat. The conditions noted are these: DHPG 50 μM, 5 min. As for the experimental part:
To confirm the effect of mGluR activation on surface AMPARs using an alternative approach, we treated high-density cultures with DHPG (50 μM, 5 min) or control medium and surface receptors were labeled with biotin 60 minutes later. Biotinylated receptors were precipitated and the ratio of surface to total GluR1 was determined by quantitative western blotting. This biochemical analysis confirmed that surface AMPARs are reduced by DHPG treatment to only 56.8±4.0% of the value in control cultures (n=4 in each treatment group; p<0.01; FIG. 6).
Biotinylation experiments were performed as previously described^35. Briefly, 2-week-old high-density cultured hippocampal neurons were treated with either control medium or 50 μM DHPG for 5 min, and incubated for 1 h at 37° C. to allow endocytosis to occur. The sister cultures were placed on ice to stop endocytosis and washed two times with ice-cold artificial cerebrospinal fluid (ACSF) containing 124 mM NaCl, 5 mM KCl, 1.25 mM NaH2PO4, 26 mM NaHCO3, 0.8 mM MgCl2, 1.8 mM CaCl2, 10 mM dextrose, and saturated with 95% O2, 5% CO2. Cultures were then incubated with ACSF containing 1 mg/ml Sulfo-NHS-LC-Biotin (Pierce Chemical Company, Rockford, Ill.) for 30 min on ice. Cultures were rinsed in TBS to quench the biotin reaction. […] Quantitative western blots were performed on both total and biotinylated (surface) proteins using anti-GluR1 C-terminal (1:1000, Upstate Biotechnology, Lake Placid, N.Y.) and anti-NR1 N-terminal antibodies (1:1000, Chemicon). […] Digital images, produced by densitometric scans of autoradiographs on a ScanJet IIcx (Hewlett Packard, Palo Alto, Calif.) with DeskScan II software (Hewlett Packard), were quantified using NIH Image 1.60 software. The surface/total ratio was calculated for each culture, and treatment groups were compared using a paired t-test. […] For display purposes, the data are expressed as the ratio of DHPG to control values.

Assay [2] relates to cultured hippocampal cells. In words: AMPAR-mediated mEPSC recordings. Type of assay: cell-based, rat. The note with it: for mEPSC inter-event interval, % of baseline: 5 min; for mEPSC amplitude, % baseline: not statistically significant.

The structures appear in SMILES notation.

On to `NC(C(=O)O)c1cc(O)cc(O)c1` (racemic) [DHPG, (RS)-3,5-dihydroxyphenylglycine], for which, in assay [1] (60 minutes later, cycloheximide 60 μM with DHPG where named), the “surface NR1 (surface/total), % of the value in control cultures” value came to 32.3±8.2%. In addition, the “surface GluR1 (surface/total), % of the value in control cultures” value in assay [1] (biotin labeling 60 minutes later) is reported as 56.8±4.0%. The “mEPSC inter-event interval, % of baseline” value in assay [2] (15 min after DHPG 50 μM) stood at 315%; in assay [2] (60 minutes after DHPG 50 μM), 319%. Further, the “mEPSC amplitude, % baseline” value in assay [2] (15 minutes following DHPG) was 94.2%; in assay [2] (60 minutes following DHPG) it was 92.2%.
